In ChEMBL document CHEMBL1131794, “The synthesis and evaluation of 6-alkylidene-2'beta-substituted penam sulfones as beta-lactamase inhibitors” (Bioorg Med Chem Lett, 1999) one finds IC50 and MIC data, which are given here for ten molecules.

Bounds are passed on as bounds.

One assay addresses Beta-lactamase TEM (Escherichia coli, UniProt P62593). Kind of assay: Inhibitory activity against serine Beta-lactamase TEM derived from […]. Type of assay: single protein.
For assay [1], the target named is T1, Beta-lactamase (Staphylococcus aureus, UniProt P00807). Briefly: Inhibitory activity against serine Beta-lactamase derived from Staphylococcus aureus.
Assay [2] addresses T1, Beta-lactamase. Kind of assay: Inhibitory activity against serine beta-lactamase, PC1 (class A) derived from Staphylococcus aureus.
The test system of assay [3] is Escherichia coli. Briefly: In vitro synergistic activity against Escherichia coli ATCC 35218 (TEM-1). Type of assay: functional.
Another assay deals with Aeromonas sobria. Briefly: In vitro synergistic activity against Aeromonas sobria (Asb A, OXA-12, Asb M). The format is functional.
The subject of assay [4] is Escherichia coli. Briefly: In vitro synergistic activity against Escherichia coli GC6267 clinical isolate. The format is functional.
Assay [5] concerns Escherichia coli. Briefly: In vitro synergistic activity against Escherichia coli GC6265 (TEM-1). Type of assay: functional.
Assay [6] has as its system Escherichia coli. Briefly: In vitro synergistic activity against Escherichia coli 4100 (no beta-lactamase). Type of assay: functional.
Assay [7] relates to Escherichia coli. Briefly: In vitro synergistic activity against Escherichia coli C600N + (PSE-1). Type of assay: functional.
Assay [8] relates to Klebsiella pneumoniae. Briefly: In vitro synergistic activity against Klebsiella pneumoniae KC2 (TEM-10). The format is functional.
Assay [9] concerns Stenotrophomonas maltophilia. Kind of assay: In vitro synergistic activity against Stenotrophomonas maltophilia 1712(L1). The format is functional.
The test system of the next assay is Serratia marcescens. Briefly: In vitro synergistic activity against Serratia marcescens GC 4132 (Amp C). Type of assay: functional.
Assay [10] has as its system Escherichia coli. Briefly: In vitro synergistic activity against Escherichia coli C600N + (P99). The format is functional.
Assay [11] has as its system Enterobacter cloacae. Briefly: In vitro synergistic activity against Enterobacter cloacae SC12629 (AmpC inducible). Type of assay: functional.
Assay [12] has as its system Escherichia coli. Kind of assay: In vitro synergistic activity against Escherichia coli 300 + (TEM-1). The format is functional.
Assay [13] concerns Escherichia coli. Kind of assay: In vitro synergistic activity against Escherichia coli GC 6266 clinical isolate. Type of assay: functional.
Assay [14] concerns Escherichia coli. Briefly: In vitro synergistic activity against Escherichia coli C600N + (SHV-4). The format is functional.
Assay [15] deals with Escherichia coli. Briefly: In vitro synergistic activity against Escherichia coli C600N + (ampR ampC). The format is functional.
Assay [16] concerns Escherichia coli. Kind of assay: In vitro synergistic activity against Escherichia coli 300 + (ampR ampC). The format is functional.
The subject of assay [17] is Escherichia coli. Kind of assay: In vitro synergistic activity against Escherichia coli C600N + (Imi-1). The format is functional.
The test system of assay [18] is Escherichia coli. Briefly: In vitro synergistic activity against Escherichia coli C600N + (IRT-2). Type of assay: functional.
A further assay relates to Pseudomonas aeruginosa. Kind of assay: In vitro synergistic activity against Pseudomonas aeruginosa Ps505A1 (AmpC derepressed). The format is functional.
Assay [19] relates to Klebsiella pneumoniae. Briefly: In vitro synergistic activity against Klebsiella pneumoniae GC 6269 clinical isolate. Type of assay: functional.
The test system of assay [20] is Escherichia coli. Briefly: In vitro synergistic activity against Escherichia coli C600N + (OXA-10) {PSE-2}. The format is functional.
Assay [21] has as its system Klebsiella pneumoniae. Kind of assay: In vitro synergistic activity against Klebsiella pneumoniae (ACT-1 + 3 blas, IPM=S). Type of assay: functional.
For assay [22], the system named is Escherichia coli. Kind of assay: In vitro synergistic activity against Escherichia coli C600N + (SHV-1). Type of assay: functional.
For assay [23], the system named is Escherichia coli. Briefly: In vitro synergistic activity against Escherichia coli ATCC 25922 (no beta-lactamase). Type of assay: functional.
Assay [24] relates to Escherichia coli. Briefly: In vitro synergistic activity against Escherichia coli C600N + (TEM-10). The format is functional.
The subject of the next assay is Staphylococcus aureus. Kind of assay: In vitro synergistic activity against Staphylococcus aureus (PC1). Type of assay: functional.
In assay [25] the test system is Escherichia coli. Kind of assay: In vitro synergistic activity against Escherichia coli C600N + (TEM-1). Type of assay: functional.
Assay [26] has as its system Escherichia coli. Kind of assay: In vitro synergistic activity against Escherichia coli C600N + (MIR-1). The format is functional.
In assay [27] the test system is Escherichia coli. Briefly: In vitro synergistic activity against Escherichia coli 4100 + (CCRA). Type of assay: functional.
Another assay concerns Klebsiella aerogenes. Briefly: In vitro synergistic activity against Enterobacter aerogenes GC 6268 clinical isolate. Type of assay: functional.
Assay [28] has as its system Escherichia coli. Briefly: In vitro synergistic activity against Escherichia coli C600N + (Sme-1). The format is functional.
In assay [29] the test system is Enterobacter cloacae. Kind of assay: In vitro synergistic activity against Enterobacter cloacae (Imi-1+AmpC). Type of assay: functional.
Assay [30] concerns Escherichia coli. Briefly: In vitro synergistic activity against Escherichia coli C600N + (L1). Type of assay: functional.
Assay [31] concerns Escherichia coli. Kind of assay: In vitro synergistic activity against Escherichia coli C600N (no beta-lactamase). The format is functional.

Chain of Beta-lactamase TEM (P62593 whole entry): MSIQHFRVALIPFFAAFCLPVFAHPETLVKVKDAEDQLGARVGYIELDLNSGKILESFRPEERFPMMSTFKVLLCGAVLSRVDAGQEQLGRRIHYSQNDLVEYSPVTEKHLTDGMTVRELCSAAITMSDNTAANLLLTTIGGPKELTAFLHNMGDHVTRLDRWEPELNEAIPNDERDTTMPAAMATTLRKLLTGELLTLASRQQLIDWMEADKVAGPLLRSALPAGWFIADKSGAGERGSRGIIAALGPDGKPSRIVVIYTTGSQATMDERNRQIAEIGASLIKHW
T1 sequence (P00807 whole entry): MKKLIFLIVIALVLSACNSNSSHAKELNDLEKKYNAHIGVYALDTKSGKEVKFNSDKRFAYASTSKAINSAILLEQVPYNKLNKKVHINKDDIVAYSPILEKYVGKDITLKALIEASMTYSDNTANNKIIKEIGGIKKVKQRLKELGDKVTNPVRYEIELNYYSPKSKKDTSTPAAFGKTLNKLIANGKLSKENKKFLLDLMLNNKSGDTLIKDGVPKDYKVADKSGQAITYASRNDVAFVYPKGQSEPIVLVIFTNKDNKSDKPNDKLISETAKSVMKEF

For orientation: IC50 means the concentration that inhibits the measured activity by half. With `COC(=O)/C=C1/C(=O)N2C1S(=O)(=O)[C@@](C)(COC(=O)CSc1nnnn1C)[C@@H]2C(=O)O` (some centres undefined), the IC50 is 2.37 µM against Beta-lactamase TEM, 13.2 µM on Beta-lactamase [1] and 940 µM against Beta-lactamase [2].
For `C[C@]1(CCl)[C@H](C(=O)O)N2C(=O)/C(=C/C(=O)O)C2S1(=O)=O` (some centres undefined), the IC50 at Beta-lactamase TEM was determined as 120 µM; against Beta-lactamase [1] it was 527 µM; against Beta-lactamase [2], 2100 µM.
For the molecule `C[C@]1(/C=C/C#N)[C@H](C(=O)O)N2C(=O)/C(=C/C(=O)O)C2S1(=O)=O` (some centres undefined), the IC50 at Beta-lactamase TEM stood at 21.7 µM; against Beta-lactamase [1], 6.76 µM; against Beta-lactamase [2], 504 µM.
On to `CC1(C)[C@H](C(=O)O)N2C(=O)/C(=C/C(=O)O)C2S1(=O)=O` (some centres undefined), for which the IC50 against Beta-lactamase TEM amounted to 1.8 µM; against Beta-lactamase [1] it was 4.5 µM; on Beta-lactamase [2], 108 µM.
As for `C[C@]1(COC=O)[C@H](C(=O)O)N2C(=O)/C(=C/C(=O)O)C2S1(=O)=O` (some centres undefined), the IC50 on Beta-lactamase [1] is 0.592 µM; against Beta-lactamase [2], 173 µM.
Regarding `CC(=O)OC[C@@]1(C)[C@H](C(=O)O)N2C(=O)/C(=C/C(=O)O)C2S1(=O)=O` (some centres undefined), the results for the IC50 at Beta-lactamase TEM, at Beta-lactamase [1] and at Beta-lactamase [2] were 0.18 µM, 0.708 µM and 76.5 µM, respectively.
As to `COC(=O)/C=C1/C(=O)N2[C@@H](C(=O)O)[C@](C)(COC(C)=O)S(=O)(=O)[C@H]12`, the figures for the IC50 on Beta-lactamase TEM and against Beta-lactamase [1] were 2.72 µM and 9.51 µM, respectively.
As for `C[C@]1(COC(=O)CCl)[C@H](C(=O)O)N2C(=O)/C(=C/C(=O)O)[C@H]2S1(=O)=O`, the IC50 on Beta-lactamase TEM is 0.196 µM; at Beta-lactamase [2], 7.2 µM.
One may read the MIC as the lowest concentration that inhibits growth of the organism. As to `C[C@@H](O)[C@H]1C(=O)N2C(C(=O)O)=C(SCCNC=N)C[C@H]12` [IMIPENEM ANHYDROUS], the minimal inhibitory concentration (MIC) is < 0.06 µg/mL in the assay on Escherichia coli [3]; > 64 µg/mL with Aeromonas sobria; 0.12 µg/mL with Escherichia coli [4]; < 0.06 µg/mL in the assay with Escherichia coli [5]; 0.12 µg/mL in the assay on Escherichia coli [6]; 0.12 µg/mL in the assay with Escherichia coli [7]. Moreover, the MIC was < 0.06 µg/mL in the assay with Klebsiella pneumoniae [8]; > 64 µg/mL in [9]; 1 µg/mL with Serratia marcescens; 0.25 µg/mL in the assay on Escherichia coli [10]; 1 µg/mL in the assay with Enterobacter cloacae [11]; < 0.06 µg/mL in the assay on Escherichia coli [12]. The MIC in the assay with Escherichia coli [13] was 0.25 µg/mL; in the assay on Escherichia coli [14] it was 0.12 µg/mL; with Escherichia coli [15] it was 0.5 µg/mL; in the assay on Escherichia coli [16] it was < 0.06 µg/mL; in the assay with Escherichia coli [17], 4 µg/mL; in the assay on Escherichia coli [18] it was 0.25 µg/mL. The MIC in the assay with Pseudomonas aeruginosa is 0.5 µg/mL; in the assay with Klebsiella pneumoniae [19] it was 0.12 µg/mL; with Escherichia coli [20] it was 0.12 µg/mL; in the assay with Klebsiella pneumoniae [21], 1 µg/mL; in the assay on Escherichia coli [22] it was 0.12 µg/mL; in the assay on Escherichia coli [23] it was < 0.06 µg/mL. For the same molecule, the MIC with Escherichia coli [24] is 0.12 µg/mL; with Staphylococcus aureus it was < 0.06 µg/mL; with Escherichia coli [25], 0.12 µg/mL; with Escherichia coli [26], 0.5 µg/mL; in the assay on Escherichia coli [27] it was 16 µg/mL; in the assay on Klebsiella aerogenes, 1 µg/mL. Further, the MIC is 64 µg/mL in the assay on Escherichia coli [28], > 64 µg/mL in the assay with Enterobacter cloacae [29] and 2 µg/mL in the assay with Escherichia coli [30].
For the molecule `CCN1CCN(C(=O)N[C@@H](C(=O)N[C@@H]2C(=O)N3[C@@H]2SC(C)(C)[C@@H]3C(=O)O)c2ccccc2)C(=O)C1=O` [PIPERACILLIN], the MIC was > 64 µg/mL in the assay with Escherichia coli [3]; 64 µg/mL with Aeromonas sobria; > 64 µg/mL in the assay on Escherichia coli [4]; > 64 µg/mL with Escherichia coli [5]; 2 µg/mL in the assay with Escherichia coli [31]; < 0.06 µg/mL in the assay with Escherichia coli [6]. Besides, the MIC in the assay on Escherichia coli [7] is 32 µg/mL; in the assay on Klebsiella pneumoniae [8], > 64 µg/mL; in [9], > 64 µg/mL; in the assay on Serratia marcescens it was 64 µg/mL; in the assay on Escherichia coli [10], > 64 µg/mL; with Enterobacter cloacae [11], > 64 µg/mL. Besides, the MIC with Escherichia coli [12] was > 64 µg/mL; in the assay on Escherichia coli [13], > 64 µg/mL; in the assay with Escherichia coli [15], > 64 µg/mL; in the assay on Escherichia coli [16], 16 µg/mL; in the assay with Escherichia coli [17], > 64 µg/mL; in the assay on Escherichia coli [18] it was > 64 µg/mL. The MIC in the assay on Pseudomonas aeruginosa is > 64 µg/mL; with Klebsiella pneumoniae [19] it was > 64 µg/mL; in the assay with Klebsiella pneumoniae [21] it was > 64 µg/mL; with Escherichia coli [22], 4 µg/mL; with Escherichia coli [23] it was 2 µg/mL; in the assay on Staphylococcus aureus, > 64 µg/mL. The MIC was 64 µg/mL with Escherichia coli [26]; > 64 µg/mL in the assay with Escherichia coli [27]; > 64 µg/mL with Klebsiella aerogenes; > 64 µg/mL in the assay on Escherichia coli [28]; > 64 µg/mL in the assay with Enterobacter cloacae [29]; > 64 µg/mL in the assay on Escherichia coli [30].
